According to US11053212B2, “Benzimidazole derivatives as bromodomain inhibitors” (GLAXOSMITHKLINE INTELLECTUAL PROPERTY DEVELOPMENT LIMITED, priority 2015, dated 2021):
Counter-ions that a name gives are not always drawn. Like-named read-outs stand apart in the source and are kept apart here.

Tests used:
[1] = system: LPS induced MCP-1 production; assay: LPS induced MCP-1 production from human whole blood; type: cell-based; settings: LPS 200 ng/mL, 18-24 hours; for IC50: read-out: mean pIC50, LPS induced MCP-1 production (converted)
Text: Measurement of LPS Induced MCP-1 Production from Human Whole Blood
Activation of monocytic cells by agonists of toll-like receptors such as bacterial lipopolysaccharide (LPS) results in production of key inflammatory mediators including MCP-1. Such pathways are widely considered to be central to the pathophysiology of a range of auto-immune and inflammatory disorders. Blood is collected in a tube containing Sodium heparin (Leo Pharmaceuticals) (10 units of heparin/mL of blood). 96-well compound plates containing 1 μL test sample in 100% DMSO were prepared (two replicates on account of donor variability). 130 μL of whole blood was dispensed into each well of the 96-well compound plates and incubated for 30 min at 37° C., 5% CO2. 10 μL of lipopolysaccharide (from Salmonella typhosa; L6386) made up in PBS (200 ng/mL final assay concentration) was added to each well of the compound plates. The plates were then placed in the humidified primary cell incubator for 18-24 hours at 37° C., 5% CO2. 140 μL of PBS was added to all wells of the compound plates containing blood. The plates were then sealed and centrifuged for 10 mins at 2500 rpm. 25 μL of cell supernatant was placed in a 96-well MSD plate pre-coated with human MCP-1 capture antibody. The plates were sealed and placed on a shaker at 600 rpm for 1 hour (r.t). 25 μL of Anti-human MCP-1 antibody labelled with MSD SULFO-TAG™ reagent is added to each well of the MSD plate (stock 50× was diluted 1:50 with Diluent 100, final assay concentration is 1 μg/mL). The plates were then re-sealed and shaken for another hour before washing with PBS. 150 μL of 2×MSD Read Buffer T (stock 4×MSD Read Buffer T was diluted 50:50 with de-ionised water) was then added to each well and the plates read on the MSD Sector Imager 6000. Concentration response curves for each compound were generated from the data and an pIC50 value was calculated.

BRD4 BD2 = target: T1, BRD4 BD2 (Homo sapiens, UniProt O60885, Y97A); assay: TR-FRET binding assay, BRD4 BD2 (mutant protein); settings: 10 nM mutated bromodomain protein, Alexa Fluor647 ligand at Kd, read-out: mean pIC50 in the BRD4 BD2 assay (converted)
T1 construct: BRD4 (1-477) (Y97A) and (Y390A); made in house; host or cells: E. coli (pET15b vector)
Method: (§1) Biological Data Time Resolved Fluorescence Resonance Energy Transfer (TR-FRET) Assay
(§2) Binding was assessed using a time resolved fluorescent resonance energy transfer binding assay. This utilises a 6 His purification tag at the N-terminal of the proteins as an epitope for an anti-6 His antibody labeled with Europium chelate (PerkinElmer AD0111) allowing binding of the Europium to the proteins which acts as the donor fluorophore.
(§3) In the absence of a competing compound, excitation of the Europium causes the donor to emit at λ618 nm which excites the Alexa labelled bromodomain binding compound leading to an increased energy transfer that is measurable at λ647 nM. In the presence of a sufficient concentration of a compound that can bind these proteins, the interaction is disrupted leading to a quantifiable drop in fluorescent resonance energy transfer.
(§4) The binding of compounds of the invention to Bromodomains BRD2, BRD3, BRD4 and BRDT was assessed using mutated proteins to detect differential binding to either Binding Domain 1 (BD1) or Binding Domain 2 (BD2) on the bromodomain. […] Therefore in the final assay conditions, binding of the fluoroligand to the mutated domain cannot be detected and subsequently the assay is suitable to determine the binding of compounds to the single non-mutated bromodomain.
Recombinant Human Bromodomains [(BRD2 (1-473) (Y113A) and (Y386A), BRD3 (1-435) (Y73A) and (Y348A) BRD4 (1-477) (Y97A) and (Y390A) and BRDT (1-397) (Y66A) and (Y309A)] were expressed in E coli cells (in pET15b vector for BRD2/3/4 and in pET28a vector for BRDT) with a 6-His tag at the N-terminal. The His-tagged Bromodomain pellet was resuspended in 50 mM HEPES (pH7.5), 300 mM NaCl, 10 mM imidazole & 1 μl/ml protease inhibitor cocktail and extracted from the E coli cells using sonication and purified using a nickel sepharose high performance column, the proteins were washed and then eluted with a linear gradient of 0-500 mM imidazole with buffer 50 mM HEPES (pH7.5), 150 mM NaCl, 500 mM imidazole, over 20 column volumes. Final purification was completed by Superdex 200 prep grade size exclusion column. Purified protein was stored at −80° C. in 20 mM HEPES pH 7.5 and 100 mM NaCl.
All assay components were dissolved in buffer composition of 50 mM HEPES pH7.4, 50 mM NaCl, 5% Glycerol, 1 mM DTT and 1 mM CHAPS. The final concentration of bromodomain proteins were 10 nM and the Alexa Fluor647 ligand was at Kd. These components were premixed and 5 μl of this reaction mixture was added to all wells containing 50 nl of various concentrations of test compound or DMSO vehicle (0.5% DMSO final) in Greiner 384 well black low volume microtitre plates and incubated in dark for 30 minutes at rt. […] of detection mixture containing 1.5 nM final concentration anti-6His Europium chelate was added to all wells and a further dark incubation of at least 30 minutes was performed. Plates were then read on the Envision plate reader, (⋅ex=317 nm, donor ⋅em=615 nm; acceptor ⋅em=665 nm; Dichroic LANCE dual). Time resolved fluorescent intensity measurements were made at both emission wavelengths and the ratio of acceptor/donor was calculated and used for data analysis. All data was normalized to the mean of 16 high (inhibitor control—Example 11 of WO 2011/054846A1) and 16 low (DMSO) control wells on each plate. A four parameter curve fit of the following form was then applied: y=a+((b−a)/(1+(10^x/10^c)^d) Where ‘a’ is the minimum, […], ‘c’ is the pIC50 and […].

BRD4 BD1 = target: T2, BRD4 BD1 (Homo sapiens, UniProt O60885, Y390A); assay: TR-FRET binding assay, BRD4 BD1 (mutant protein); settings: 10 nM mutated bromodomain protein, Alexa Fluor647 ligand at Kd, read-out: mean pIC50 in the BRD4 BD1 assay (converted)
T2 construct: BRD4 (1-477) (Y97A) and (Y390A); made in house; host or cells: E. coli (pET15b vector)
Method: as §1, §2, §3
as §4, with “non-mutated bromodomain. […]” for “non-mutated bromodomain.”
All assay components were dissolved in buffer composition of 50 mM HEPES pH7.4, 50 mM NaCl, 5% Glycerol, 1 mM DTT and 1 mM CHAPS. […] Plates were then read on the Envision plate reader, (⋅ex=317 nm, donor ⋅em=615 nm; acceptor ⋅em=665 nm; Dichroic LANCE dual). Time resolved fluorescent intensity measurements were made at both emission wavelengths and the ratio of acceptor/donor was calculated and used for data analysis. […]

Row | SMILES | IC50 [1] [nM] | IC50 (BRD4 BD2) [nM] | IC50 (BRD4 BD1) [nM] | IC50 ([1]; Homo sapiens) [nM] | mean pIC50, LPS induced MCP-1 production [1]
1 | COCC(COC)n1c(-c2cc(C)c(=O)n(C)c2)nc2cc(CN[C@H](C(=O)O)[C@@H](C)O)ccc21 [Example 66, (2S,3R)-2-(((1-(1,3-dimethoxypropan-2-yl)-2-(1,5-dimethyl-6-oxo-1,6-dihydropyridin-3-yl)-1H-benzo[d]imidazol-5-yl)methyl)amino)-3-hydroxybutanoic acid hydrochloride] | 1000 | 1260 | 200 | – | –
2 | Cc1cc(-c2nc3cc(CN[C@H](C(=O)OC(C)C)[C@@H](C)O)ccc3n2CC2CCOCC2)cn(C)c1=O [edisylate salt of Example 303, 1,2-ethanedisulphonic acid salt of (2S,3R)-isopropyl 2-(((2-(1,5-dimethyl-6-oxo-1,6-dihydropyridin-3-yl)-1-((tetrahydro-2H-pyran-4-yl)methyl)-1H-benzo[d]imidazol-5-yl)methyl)amino)-3-hydroxybutanoate] | – | – | – | – | 7.5

Now from value to compound:

Row | IC50 [1] [nM] | IC50 (BRD4 BD2) [nM] | IC50 (BRD4 BD1) [nM] | IC50 ([1]; Homo sapiens) [nM] | mean pIC50, LPS induced MCP-1 production [1] | SMILES
3 | 3980 | 631 | 251 | – | – | Cc1cc(-c2nc3cc(CN[C@H](C(=O)O)[C@@H](C)O)ccc3n2CC2CCOCC2)cn(C)c1=O [Example 68, (2S,3R)-2-(((2-(1,5-dimethyl-6-oxo-1,6-dihydropyridin-3-yl)-1-((tetrahydro-2H-pyran-4-yl)methyl)-1H-benzo[d]imidazol-5-yl)methyl)amino)-3-hydroxybutanoic acid hydrochloride]
4 | – | – | – | 25.1 | – | Cc1cc(-c2nc3cc(CN[C@H](C(=O)OC(C)C)[C@@H](C)O)ccc3n2CC2CCOCC2)cn(C)c1=O [Example 303, (2S,3R)-isopropyl 2-(((2-(1,5-dimethyl-6-oxo-1,6-dihydropyridin-3-yl)-1-((tetrahydro-2H-pyran-4-yl)methyl)-1H-benzo[d]imidazol-5-yl)methyl)amino)-3-hydroxybutanoate]
5 | 10 | 398 | 50.1 | – | – | COCC(COC)n1c(-c2cc(C)c(=O)n(C)c2)nc2cc(CN[C@H](C(=O)OC(C)C)[C@@H](C)O)ccc21 [Example 305, (2S,3R)-Isopropyl 2-(((1-(1,3-dimethoxypropan-2-yl)-2-(1,5-dimethyl-6-oxo-1,6-dihydropyridin-3-yl)-1H-benzo[d]imidazole-5-yl)methyl)amino)-3-hydroxybutanoate]
